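Step 1: Grow cells in 96-well plates. Step 2: Expose to compound for 48 hours at 5 concentrations. Step 3: Interpolate endpoints linearly; if unreached, use highest concentration. TGI is the concentration that stops growth completely.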
Assays:
Experiment in all cases: NCI tumour cell line growth inhibition, 48 h
OVCAR-5 ovarian = test system: OVCAR-5 ovarian
RXF 393 renal = test system: RXF 393 renal
SF-295 CNS = test system: SF-295 CNS
SK-MEL-28 melanoma = test system: SK-MEL-28 melanoma
MOLT-4 leukemia = test system: MOLT-4 leukemia
786-0 renal = test system: 786-0 renal
UO-31 renal = test system: UO-31 renal
OVCAR-4 ovarian = test system: OVCAR-4 ovarian
U251 CNS = test system: U251 CNS
NCI/ADR-RES ovarian = test system: NCI/ADR-RES ovarian

Structure (SMILES) | TGI (OVCAR-5 ovarian) | TGI (RXF 393 renal) | TGI (SF-295 CNS) | TGI (SK-MEL-28 melanoma) | TGI (MOLT-4 leukemia) | TGI (786-0 renal) | TGI (UO-31 renal) | TGI (OVCAR-4 ovarian) | TGI (U251 CNS) | TGI (NCI/ADR-RES ovarian)
C[N+](C)=c1ccc2nc3c(ccc4ccccc43)oc-2c1 | 37 µM | 26 µM | 29 µM | 28.4 µM | 20.4 µM | 28.9 µM | 31.5 µM | 26.3 µM | 29.5 µM | 
COc1ccc(OC)c(NC2=NCCO2)c1 | > 100 µM | > 100 µM | > 100 µM | > 100 µM | > 100 µM | > 100 µM | > 100 µM | > 100 µM | > 100 µM | > 100 µM
C/C(=N/NC(=S)Nc1cccc(Cl)c1)c1ccccn1 | 3.46 µM | 9.76 µM | 9.39 µM | 16 µM | 1.47 µM | 12.9 µM | 5.03 µM | 16.9 µM | 8.26 µM | 4.58 µM
Cc1ccc(S(=O)(=O)NC(=O)NCCc2ccc(O)c(O)c2)cc1 | > 100 µM | > 100 µM | > 100 µM | > 100 µM | > 100 µM | > 100 µM | > 100 µM | > 100 µM | > 100 µM | > 100 µM
C[N+](C)(C)CCOC(=O)/C=C/c1cnc[nH]1 | > 500 µM | > 500 µM | > 500 µM | > 500 µM | > 316 µM |  | > 500 µM | > 500 µM | > 500 µM | > 500 µM
N=S(=O)(c1ccccc1)c1ccccc1 | > 100 µM |  | > 100 µM | > 100 µM | > 100 µM |  | > 100 µM | > 100 µM | > 100 µM | 
Cc1nc(N)sc1C(=O)Nc1ncn[nH]1 | > 100 µM | > 100 µM | > 100 µM | > 100 µM | > 100 µM | > 100 µM | > 100 µM | > 100 µM | > 100 µM | > 100 µM
Cn1c(=O)c2c(nc3n2CCC(=O)N3CCCCl)n(C)c1=O | > 100 µM |  | > 100 µM | > 100 µM | > 100 µM | > 100 µM | > 100 µM | > 100 µM | > 100 µM | > 100 µM
O=C(OCC1CCCN2CCCCC12)c1cccnc1 (configuration not stated) |  | > 100 µM | > 100 µM | > 100 µM | > 100 µM | > 100 µM | > 100 µM | > 100 µM | > 100 µM | > 100 µM
C[C@@H](NC(=O)[C@@H]1C[C@]1(C)CO)c1cccc2ccccc12 | > 100 µM | > 100 µM | > 100 µM | > 100 µM | > 100 µM | > 100 µM | > 100 µM | > 100 µM | > 100 µM | > 100 µM
Brc1c2nc3ccccc3nc2n2ccc3ccccc3c12 | > 100 µM |  |  | > 100 µM | > 100 µM | > 100 µM | > 100 µM | > 100 µM | > 100 µM | 
O=C(N/N=C\c1cccs1)c1ccncc1 | > 100 µM | > 100 µM | > 100 µM | > 100 µM | > 100 µM | > 100 µM | > 100 µM | > 100 µM | > 100 µM | > 100 µM
CC1(C)Oc2ccc3c(=O)cc(-c4cccs4)oc3c2C1C(=O)O (configuration not stated) | > 100 µM | > 100 µM | > 100 µM |  | > 100 µM | > 100 µM |  |  | > 100 µM | > 100 µM
Nc1ccc2nc(Nc3ccc(Cl)c(Cl)c3)cnc2c1 | 46.8 µM |  |  | 36.8 µM | 97.7 µM | 33.1 µM | 29.4 µM | 60.4 µM | 44.2 µM | 
Nc1nc(Nc2ccc(Cl)cc2)sc1C(=O)c1c[nH]c2ccccc12 | 46.2 µM | 44.1 µM |  | 39.8 µM |  | 15.6 µM | 34.2 µM | 51.7 µM | 25.1 µM | 33.1 µM
N=c1n(CC(=O)NC23CC4CC(CC(C4)C2)C3)c2ccccc2n1CC(=O)NC12CC3CC(CC(C3)C1)C2 | 3.08 µM | 3.17 µM | 3.52 µM | 3.17 µM | 6 µM | 3.19 µM | 26 µM | 3.38 µM | 3.02 µM | 
C=C1C2C[C@@H]3OC4CC5O[C@]6(CC5OC4C(C)C3OC(=O)CC3CC[C@@H]4OC5C7OC8C[C@](CCC9CC(=C)[C@H](CCC(C[C@H]1C)O2)O9)(OC7C4O3)O[C@@H]85)C[C@@H]1O[C@@]2(CC(C)[C@@H]3OC(CC(=O)CCO)C(O)C[C@@H]3O2)CC(C)[C@@H]1O6 (some centres not stated) | 0.562 µM |  | < 0.001 µM |  | 2.19 µM | 1.09 µM | 1.17 µM | < 0.001 µM |  | 
C/C=C/c1cc2c(c(=O)o1)C(=O)[C@@H](O)[C@H](C)O2 | 31.1 µM | 27.2 µM | 41.6 µM | 29.5 µM | 49.3 µM |  | 37.2 µM | 29.7 µM | 32.9 µM | 32.3 µM
O=C(CNc1nccs1)Nn1cnc2ccc(S(=O)(=O)Nc3nccs3)cc2c1=O | > 100 µM |  | > 100 µM | > 100 µM | > 100 µM | > 100 µM | > 100 µM | > 100 µM | > 100 µM | > 100 µM
COc1cc(S(=O)(=O)Nc2ccc(-c3csc(N4C(=O)C(Cl)C4c4cccc(Oc5ccccc5)c4)n3)cc2)ccc1Cl (configuration not stated) | > 100 µM | 15.6 µM | > 100 µM | 79.8 µM | > 100 µM | 26.5 µM | 43.9 µM | 18.1 µM |  | > 100 µM
C=CC(C)(C)C1(CC(OC)OC)C(=O)N(C)c2ccccc21 (configuration not stated) | > 25 µM | > 25 µM | > 25 µM | > 25 µM |  | > 25 µM | > 25 µM | > 25 µM | > 25 µM | > 25 µM
CO[C@H]1CC[C@]2(C)C3=CC[C@@]4(C)C(CC[C@@H]4C(C)CC[C@@H](C)C(C)C)C(=CCC2C1)O3 (some centres not stated) | > 25 µM | > 25 µM | > 25 µM | > 25 µM | > 25 µM | > 25 µM | > 25 µM | > 25 µM | > 25 µM | 

Reference: PubChem BioAssay (NCI)
